Tests used:
[1] = system: Complex soil microbiome; assay: Crystal violet biofilm biomass, MeJA chemical analogs; type: cell-based; conditions: 20 hrs
Protocol: Complex soil microbiome was treated with various MeJA chemical analogs over 20 hrs and stained with CV. The full chemical name of the chemical analogs are as follows: DHJ: Dihydro jasmonic acid; MDHJ: Methyl dihydro jasmonate; MJ: Methyl jasmonate; MO: Methyl octanoate.
This method was used to get a proxy for biofilm biomass. Briefly, planktonic cells were discarded. 50 μL of 0.1% CV solution was added to the well very gently. The biofilm was stained for 10 minutes. The dye was removed gently. 100 μL of PBS was added to the well to wash off the excess CV. PBS was removed, and the wells were left to dry overnight. The next day, 200 ul of 1% SDS was added to each well and was resuspended vigorously with a pipette. After 20 minutes, 20 ul from the top suspension was removed and added to a new 96-well plate. The well was diluted with 180 ul of water and absorbance was checked at 595 nm on a spectrophotometer.
To identify the potential functional group of MeJA for its biofilm-inducing property, several jasmonic acid analogues were screened for their biofilm-inducing capability in the soil microbiome. The analogues were used to study biofilm induction in both complex soil microbiomes (FIG. 8).

[2] = system: soil microbiota; assay: Crystal violet biofilm biomass in push-pull dynamic system; type: cell-based; conditions: 5, 25 and 50 μmol MeJA spiked in soil chamber
Protocol: (§1) 5 g of JIFFY soil substrate was resuspended in 20 ml of PBS. This suspension was vortexed for 4 minutes and sonicated for 1 minute. It was then filtered through a strainer. The slurry that didn't pass through the strainer was again resuspended in 20 ml of PBS medium and subsequent steps were repeated twice. The filtrate was then centrifuged at 150G for 2 minutes to settle large soil particles and the supernatant was decanted into another tube. This supernatant was then centrifuged at 5500G for 5 minutes to obtain a bacterial pellet. This pellet was resuspended in 20 ml of soil extract medium. This suspension was referred to as “soil microbiota inoculum”. The final concentration in all inocula was around 1×10^8 bacteria per ml as quantified by Baclight bacterial counting kit (flow cytometry) or manual counting with a hemocytometer.
This system consists of an aerator/pump (to push air), 5 μm charcoal filter (to adsorb gaseous impurities), 0.22 μm filter (to trap microbial contamination), gas wash bottle (to moisturize the air), a source chamber (to host the source of volatiles), recipient chamber (to receive volatiles) and vacuum pump (to pull the air out) (FIG. 1D). […]
This method was used to get a proxy for biofilm biomass. […] The well was diluted with 180 ul of water and absorbance was checked at 595 nm on a spectrophotometer.

[3] = system: microbial isolates from MeJA-induced complex biofilms; assay: Biofilm assay of monoculture strains isolated from MeJA-induced biofilms; type: cell-based; conditions: 5 nM MeJA, crystal violet after 24 hours
Protocol: Complex microbiota biofilm exposed to volatile MeJA was scraped off and resuspended in PBS. Through serial dilution, this inoculum was plated on soil extract agar, minimal media agar, and LB agar. Colonies with unique morphology were picked and streaked onto a fresh LB plate to acquire single colonies. The isolated strains were identified using Sanger sequencing of the PCR product with primers 27F and […]. Their biofilm response to volatile MeJA was tested using “push-pull” setup (as described above for complex biofilms). Their response to soluble MeJA was tested by directly adding MeJA to the monoculture inoculum (final concentration of 5 nM). For both assays, biofilms were stained with crystal violet and quantified after 24 hours as explained in the biofilm staining protocol. The initial OD of the inoculum was 0.2.

[4] = system: soil microbiota biofilm community; assay: 16S rRNA gene amplicon quantitative microbiome profiling of VOC-exposed biofilm communities; conditions: 16 and 24 hours
Protocol: Using the push-pull airflow system, soil microbiota inoculum was exposed to four VOC treatments 1) soil VOCs; 2) WT Arabidopis rVOCs; 3) jmt Arabidopsis rVOCs; 4) jmt Arabidopsis rVOCs+MeJA. Biofilm and planktonic parts of the samples were collected from 28 wells after 16 and 24 hours and stored at −80° C. The collective sample from 28 wells was treated as a single experimental replicate. The whole experiment was repeated eight times.
Biofilm was scraped at specific timepoints and resuspended in PBS solution. DNA-RNA shield was added in 1:1 proportion and samples were stored at −80 C. Zymobiomics DNA miniprep kit was used to isolate DNA from the samples based on their protocol. 16S V4-V5 region was amplified using 515F-Y and 927R primers (Walters et al., mSystems 1 (2016)). 20 µL of reaction contained 2 μL of 10×DreamTaq buffer, 2 μL of 2 mM dNTP mix, 0.5 μL of each primer (10 µM), 0.5 μL of DreamTaq polymerase (5U/μL), 10 ng of template DNA, and molecular grade water to make up the volume. PCR conditions were as follows: initial denaturation at 95° C. for 3 minutes, 35 cycles of denaturation at 95° C. for 45 s, annealing at 50° C. for 45 s, extension at 68° C. for 90 s and final extension at 68° C. for 5 minutes. PCR products were purified with a Genejet PCR purification kit. Amplicon concentration was measured using Qubit DNA BR Kit and Qubit fluorometer. 16S amplicons were submitted for next-gen sequencing on Illumina MiSeq V3 Run (300 base pairs paired-end) at Singapore Centre for Life Science Engineering (SCELSE). Rarefaction analysis was performed to calculate appropriate depth for sequencing (FIG. 17B).
To enumerate the 16S rRNA gene copy numbers, the primer pair 515F and 806R (Walters, W. et al., MSystems 1, (2016)) were used in qPCR to amplify the 16S gene using Applied Biosystem real-time PCR system. The PCR assay mixture consists of 10 ul of PowerUp™ SYBR™ Green Master Mix, 1 ul of each primer from 10 µM stock, 1 ul of DNA of extracted DNA from the microbial population, and 7 ul of sterile nuclease-free water. The PCR amplification program encompassed an initial denaturation step at 95° C. for 3 min followed by 40 three-step cycles at 95° C. for 30 s, at 52° C. for 30 s and 72° C. for 30 s. Plasmid with the fragments of 16S rRNA gene part amplified with same primer pair was taken as standard for creating standard curve with known copy number for absolute quantification. Pearson correlation was calculated for the qPCR-derived copy number and the DNA yield from all the samples (FIG. 17D).
Raw and demultiplexed sequencing data was analysed as follows (also described in a flowchart in FIG. 17A): Primer and adapter sequences were removed using cutadapt (Martin, M., EMBnet.journal 17, 10-12 (2011)). […]

[5] = system: soil microbiota; assay: Live confocal imaging of soil microbiota biofilm formation (SYTO9 nucleic acid stain, 3D biovolume); type: cell-based
Protocol: as §1
(§2) For the confocal imaging experiments, soil inoculum was enriched in soil extract media overnight at 37° C.
(§3) Soil microbiota inoculum was prepared as described in the section above. MeJA was added to the microbiota to achieve the desired concentration (0, 1, 5, 25 nM for nucleic acid imaging experiment, and 0 and 5 nM for matrix imaging experiment). […] 50 µL of SYTO™9 (Thermo cat. no. S34854) solution (final concentration of 5 μM) was also added to all the wells. For matrix imaging, FilmTracer™ SYPRO™ Ruby Biofilm Matrix Stain (Thermo, cat. no. F10318) was added instead (ready to use, 1×concentration). For live imaging, Zeiss LSM 900 with Airyscan (Definite Focus 2) was used and images were acquired every 30 minutes for 24 hours with 65×oil objective at the NUS Centre for Bioimaging Science (CBIS). For both the dyes (separate experiments), a 488 nm laser was used.
(§4) Image analysis was performed using BiofilmQ software ([…]). Images were aligned along the Z-axis and along time. 2-class Otsu thresholding was used to detect the signal against the background. Sensitivity was set based on thresholding feedback. The rest of the settings were kept at default. Biofilm-related global properties were calculated and exported. We mainly focused on the 3D biovolume of our samples. Linear mixed-effects were used to model the biovolume where time, treatment, and their interaction were the fixed effects, and every sample was considered a random effect (Table 1 and Table 2). Following packages from R were used: nlme (Pinheiro, J. et al., R package version 3.1-153 (2021)), ggplot2 (Wickham, H., Wiley Interdiscip. Rev. Comput. Stat. 3, 180-185 (2011)).

[6] = system: soil microbiome; assay: Biofilm induction by liquid MeJA concentration range; type: cell-based; conditions: pure liquid MeJA
Protocol: Biofilm induction of the soil microbiome was tested with several concentrations of pure MeJA at the nanomolar level. It was confirmed that a concentration range from […] of MeJA was effective to induce biofilms without being detrimental to plant growth.

[7] = system: soil microbiota biofilms (extracellular matrix proteins); assay: Live confocal imaging of biofilm matrix formation (SYPRO Ruby, 3D biovolume); type: cell-based
Protocol: as §1, §2, §3, §4

[8] = 5 nM MeJA, time-treatment interaction

CC/C=C\CC1=C(C)CCC1=O [Cis-jasmone, cis-jasmone]
potential for biofilm induction among jasmonic acid analogues [1]: highest potential for biofilm induction

CC/C=C\CC1C(=O)CCC1CC(=O)OC (stereo not shown) [MeJA, Methyl jasmonate]
potency in biofilm promotion, volatile form [2]: higher at low concentrations (5 μmol) and gradually declined in a dose-dependent manner
strains MeJA-responsive in biofilm formation, of nine tested [3]: six
share of biofilm community with significant shift in abundance ([4]; WT rVOCs vs soil VOCs, MeJA: jmt+MeJA vs jmt rVOCs): ~10%
number of promoted ASVs ([4]; vs respective control): 21 ASVs
number of repressed ASVs ([4]; vs respective control): 82 ASVs
number of responding ASVs ([4]; vs respective control): 103 ASVs
Linear mixed-effects model Value, Treatment1 nM (Biovolume) ([5]; 1 nM MeJA, SYTO9, imaging over 24 hours): −988.35
Linear mixed-effects model Value, Hours: Treatment1 nM (Biovolume) ([5]; 1 nM MeJA, time-treatment interaction): 106.209
time from which biovolumes differed ([5]; 5 nM MeJA): ≥ 15 h
interaction of time and treatment in mixed-effects model ([5]; 5 nM MeJA vs non-treated biofilms): statistically significant
biofilm growth trajectory (biovolume) ([5]; 5 nM MeJA, 0 to 24 hours, vs control): increasingly higher biofilm growth trajectory compared to the control
Linear mixed-effects model Value, Treatment5 nM (Biovolume) ([5]; 5 nM MeJA, SYTO9, imaging over 24 hours): −453.513
Linear mixed-effects model Value, Hours: Treatment5 nM (Biovolume) [5, 8]: 102.9409
Linear mixed-effects model Value, Treatment25 nM (Biovolume) ([5]; 25 nM MeJA, SYTO9, imaging over 24 hours): −1245.62
Linear mixed-effects model Value, Hours: Treatment25 nM (Biovolume) ([5]; 25 nM MeJA, time-treatment interaction): 90.7811
concentration effective to induce biofilms without being detrimental to plant growth [6]: ≥ 500 nM
time from which MeJA influence appeared in the matrix ([7]; 5 nM MeJA): ≥ 7 h
effect on biofilm matrix ([7]; 5 nM MeJA vs non-treated biofilm): promoted biofilm matrix compared to non-treated biofilm
Linear mixed-effects model Value, Treatment5 (matrix Biovolume) ([7]; 5 nM MeJA, SYPRO Ruby): 294.3537
Linear mixed-effects model Value, Hours: Treatment5 (matrix Biovolume) [7, 8]: 11.25

CCCCCC1C(=O)CCC1CC(=O)O (stereo not shown) [DHJ, Dihydro jasmonic acid]
potential for biofilm induction among jasmonic acid analogues [1]: highest potential for biofilm induction

Source: US20240389585A1, “METHOD FOR PROMOTING PLANT GROWTH” (priority 2021, published 2024)
